Laboratory results: ChEMBL document CHEMBL1151599, “Probing the importance of the second chloroethyl arm of a benzoic acid mustard derivative of an imidazole-containing analogue of distamycin” (Bioorg Med Chem Lett, 1994)

Tests used:
[1] = test system: Nucleic Acid; assay: Apparent DNA binding constant to Poly (dA-dT) was determined using an ethidium displacement assay; assay type: nucleic-acid assay
[2] = test system: Nucleic Acid; assay: Apparent DNA binding constant to calf thymus DNA was determined using an ethidium displacement assay; assay type: nucleic-acid assay; conditions: Bos taurus
[3] = test system: Nucleic Acid; assay: Apparent DNA binding constant to T4 DNA was determined using an ethidium displacement assay; assay type: nucleic-acid assay
[4] = test system: Nucleic Acid; assay: Apparent DNA binding constant to Poly (dG-dC) was determined using an ethidium displacement assay; assay type: nucleic-acid assay
[5] = test system: K562; assay: Cytotoxicity against the growth of chronic human myeloid leukemia K562 cells in culture following 1 hour exposure of compound using MTT assay; assay type: functional, cell-based; conditions: K562, 1 h

Row | Compound | K app [1] | K app [2] | K app [3] | K app [4] | IC50 [5]
1 | CN(C)CCNC(=O)c1nc(NC(=O)c2nc(NC(=O)c3nc(NC(=O)c4ccc(N(CCCl)CCCl)cc4)cn3C)cn2C)cn1C | 550000 M⁻¹ | 590000 M⁻¹ | 170000 M⁻¹ | 500000 M⁻¹ | –
2 | CN(C)CCNC(=O)c1nc(NC(=O)c2nc(NC(=O)c3nc(NC(=O)c4ccc(NCCCl)cc4)cn3C)cn2C)cn1C | 550000 M⁻¹ | 2.27e+06 M⁻¹ | 3.89e+06 M⁻¹ | 900000 M⁻¹ | > 100 µM
